Results taken from patent publication US20260226493A1, “HERBICIDE RESISTANT PLANTS” (SYNGENTA CROP PROTECTION AG, priority 2023, published 2026).

What was measured:
Assay in all cases: BIO3-BIO1 mutant enzyme activity in the presence of herbicide, percentage inhibition (fluorometric DAPA assay)
Format in all cases: biochemical
Settings in all cases: read-out: percentage inhibition
[1] = target: T1, Arabidopsis thaliana BIO3-BIO1 (BioDA) mutants (Arabidopsis thaliana, UniProt B0F481, A609W)
T1 construct: with the predicted N-terminal mitochondrial transit peptide removed; 6xHis-tag (N); thrombin cleavage site (N); made in house; host or cells: E. coli BL21 (DE3) bioA
In short: (§1)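 Percentage inhibition compares activity at one of three herbicide concentrations against DMSO, from o-phthalaldehyde-derivatised DAPA fluorescence (ex 410, em 470 nm). Purified N-His BIO3-BIO1 variants (50 nM, E. coli-expressed) saw herbicide 10 min at 20 °C in pH 8.6 EPPS buffer, then 20 μM KAPA plus 100 μM spermidine for 75 min at 20 °C.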

[2] = target: T2, Arabidopsis thaliana BIO3-BIO1 (BioDA) mutants (Arabidopsis thaliana, UniProt B0F481, C388T)
T2 construct: with the predicted N-terminal mitochondrial transit peptide removed; 6xHis-tag (N); thrombin cleavage site (N); made in house; host or cells: E. coli BL21 (DE3) bioA
In short: as §1

[3] = target: T3, Arabidopsis thaliana BIO3-BIO1 (BioDA) mutants (Arabidopsis thaliana, UniProt B0F481, DEL513-513)
T3 construct: with the predicted N-terminal mitochondrial transit peptide removed; 6xHis-tag (N); thrombin cleavage site (N); made in house; host or cells: E. coli BL21 (DE3) bioA
In short: as §1

[4] = target: T4, Arabidopsis thaliana BIO3-BIO1 (BioDA) mutants (Arabidopsis thaliana, UniProt B0F481, F348D)
T4 construct: with the predicted N-terminal mitochondrial transit peptide removed; 6xHis-tag (N); thrombin cleavage site (N); made in house; host or cells: E. coli BL21 (DE3) bioA
In short: as §1

[5] = target: T5, Arabidopsis thaliana BIO3-BIO1 (BioDA) mutants (Arabidopsis thaliana, UniProt B0F481, Q517T)
T5 construct: with the predicted N-terminal mitochondrial transit peptide removed; 6xHis-tag (N); thrombin cleavage site (N); made in house; host or cells: E. coli BL21 (DE3) bioA
In short: as §1

[6] = target: T6, Arabidopsis thaliana BIO3-BIO1 (BioDA) mutants (Arabidopsis thaliana, UniProt B0F481, S509A)
T6 construct: with the predicted N-terminal mitochondrial transit peptide removed; 6xHis-tag (N); thrombin cleavage site (N); made in house; host or cells: E. coli BL21 (DE3) bioA
In short: as §1

[7] = target: T7, Arabidopsis thaliana BIO3-BIO1 (BioDA) mutants (Arabidopsis thaliana, UniProt B0F481, S509K)
T7 construct: with the predicted N-terminal mitochondrial transit peptide removed; 6xHis-tag (N); thrombin cleavage site (N); made in house; host or cells: E. coli BL21 (DE3) bioA
In short: as §1

[8] = target: T8, Arabidopsis thaliana BIO3-BIO1 (BioDA) mutants (Arabidopsis thaliana, UniProt B0F481, S704P)
T8 construct: with the predicted N-terminal mitochondrial transit peptide removed; 6xHis-tag (N); thrombin cleavage site (N); made in house; host or cells: E. coli BL21 (DE3) bioA
In short: as §1

[9] = target: T9, Arabidopsis thaliana BIO3-BIO1 (BioDA) mutants (Arabidopsis thaliana, UniProt B0F481, T393V)
T9 construct: with the predicted N-terminal mitochondrial transit peptide removed; 6xHis-tag (N); thrombin cleavage site (N); made in house; host or cells: E. coli BL21 (DE3) bioA
In short: as §1

[10] = target: T10, Arabidopsis thaliana BIO3-BIO1 (BioDA) mutants (Arabidopsis thaliana, UniProt B0F481, T512D)
T10 construct: with the predicted N-terminal mitochondrial transit peptide removed; 6xHis-tag (N); thrombin cleavage site (N); made in house; host or cells: E. coli BL21 (DE3) bioA
In short: as §1

[11] = target: T11, Arabidopsis thaliana BIO3-BIO1 (BioDA) mutants (Arabidopsis thaliana, UniProt B0F481, W391L)
T11 construct: with the predicted N-terminal mitochondrial transit peptide removed; 6xHis-tag (N); thrombin cleavage site (N); made in house; host or cells: E. coli BL21 (DE3) bioA
In short: as §1

[12] = target: T12, Arabidopsis thaliana BIO3-BIO1 (BioDA) mutants (Arabidopsis thaliana, UniProt B0F481, W392C)
T12 construct: with the predicted N-terminal mitochondrial transit peptide removed; 6xHis-tag (N); thrombin cleavage site (N); made in house; host or cells: E. coli BL21 (DE3) bioA
In short: as §1

T10 sequence (B0F481 23-833 T512D): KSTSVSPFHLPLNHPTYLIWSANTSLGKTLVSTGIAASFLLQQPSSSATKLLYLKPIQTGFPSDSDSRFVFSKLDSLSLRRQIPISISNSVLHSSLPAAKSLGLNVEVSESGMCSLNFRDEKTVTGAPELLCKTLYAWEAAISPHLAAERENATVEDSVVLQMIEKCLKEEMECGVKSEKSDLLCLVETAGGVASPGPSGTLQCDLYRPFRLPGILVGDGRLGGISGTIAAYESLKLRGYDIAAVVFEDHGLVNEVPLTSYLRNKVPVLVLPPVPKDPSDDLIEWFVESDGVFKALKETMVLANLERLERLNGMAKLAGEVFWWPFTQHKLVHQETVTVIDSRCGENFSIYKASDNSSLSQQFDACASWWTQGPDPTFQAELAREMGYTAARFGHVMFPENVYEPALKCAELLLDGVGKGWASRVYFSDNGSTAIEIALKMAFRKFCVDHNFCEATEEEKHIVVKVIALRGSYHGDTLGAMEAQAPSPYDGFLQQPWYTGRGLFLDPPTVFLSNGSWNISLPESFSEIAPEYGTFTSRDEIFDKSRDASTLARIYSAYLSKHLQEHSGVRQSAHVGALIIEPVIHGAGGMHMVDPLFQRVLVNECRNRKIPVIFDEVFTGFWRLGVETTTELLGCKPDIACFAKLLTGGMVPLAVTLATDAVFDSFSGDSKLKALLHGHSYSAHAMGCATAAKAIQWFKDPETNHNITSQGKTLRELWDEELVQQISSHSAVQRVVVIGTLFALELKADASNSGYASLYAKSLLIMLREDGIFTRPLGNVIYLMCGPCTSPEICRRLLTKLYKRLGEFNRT
T5 sequence (B0F481 23-833 Q517T): as the sequence (B0F481 23-833 T512D) above, with D490T, Q495T counted along it
T8 sequence (B0F481 23-833 S704P): as the sequence (B0F481 23-833 T512D) above, with D490T, S682P counted along it
T2 sequence (B0F481 23-833 C388T): as the sequence (B0F481 23-833 T512D) above, with C366T, D490T counted along it
T12 sequence (B0F481 23-833 W392C): as the sequence (B0F481 23-833 T512D) above, with W370C, D490T counted along it
T7 sequence (B0F481 23-833 S509K): as the sequence (B0F481 23-833 T512D) above, with S487K, D490T counted along it
T9 sequence (B0F481 23-833 T393V): as the sequence (B0F481 23-833 T512D) above, with T371V, D490T counted along it
T3 sequence (B0F481 other isoform, or with tags, fused parts or gaps DEL513-513): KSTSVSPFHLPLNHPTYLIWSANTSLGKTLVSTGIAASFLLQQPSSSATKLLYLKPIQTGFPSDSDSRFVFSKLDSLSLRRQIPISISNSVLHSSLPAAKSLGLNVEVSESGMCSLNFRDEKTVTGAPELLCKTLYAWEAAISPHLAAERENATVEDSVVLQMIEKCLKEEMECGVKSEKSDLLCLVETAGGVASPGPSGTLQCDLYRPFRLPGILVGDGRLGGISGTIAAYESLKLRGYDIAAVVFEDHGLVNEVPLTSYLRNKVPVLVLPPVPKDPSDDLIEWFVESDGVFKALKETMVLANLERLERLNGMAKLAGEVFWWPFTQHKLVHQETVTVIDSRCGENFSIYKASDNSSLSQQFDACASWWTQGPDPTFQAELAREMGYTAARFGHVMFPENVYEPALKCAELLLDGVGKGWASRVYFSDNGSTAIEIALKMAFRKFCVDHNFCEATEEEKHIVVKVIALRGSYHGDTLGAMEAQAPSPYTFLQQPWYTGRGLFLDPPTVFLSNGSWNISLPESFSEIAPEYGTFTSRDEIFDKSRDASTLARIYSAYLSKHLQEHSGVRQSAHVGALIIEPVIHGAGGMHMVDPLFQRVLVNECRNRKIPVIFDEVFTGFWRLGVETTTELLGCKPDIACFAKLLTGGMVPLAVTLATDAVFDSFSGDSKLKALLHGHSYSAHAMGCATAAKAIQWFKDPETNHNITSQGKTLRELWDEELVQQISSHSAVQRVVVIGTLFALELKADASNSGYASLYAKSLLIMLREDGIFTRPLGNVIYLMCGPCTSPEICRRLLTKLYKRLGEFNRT
T11 sequence (B0F481 23-833 W391L): as the sequence (B0F481 23-833 T512D) above, with W369L, D490T counted along it
T6 sequence (B0F481 23-833 S509A): as the sequence (B0F481 23-833 T512D) above, with S487A, D490T counted along it
T1 sequence (B0F481 23-833 A609W): as the sequence (B0F481 23-833 T512D) above, with D490T, A587W counted along it
T4 sequence (B0F481 23-833 F348D): as the sequence (B0F481 23-833 T512D) above, with F326D, D490T counted along it

Row | Structure (SMILES) | inhibition at 0.2 µM [1] [%] | inhibition at 1 µM [1] [%] | inhibition at 5 µM [1] [%] | inhibition at 0.2 µM [2] [%] | inhibition at 1 µM [2] [%] | inhibition at 5 µM [2] [%] | inhibition at 0.2 µM [3] [%] | inhibition at 1 µM [3] [%] | inhibition at 5 µM [3] [%] | inhibition at 0.2 µM [4] [%] | inhibition at 1 µM [4] [%] | inhibition at 5 µM [4] [%] | inhibition at 1 µM [5] [%] | inhibition at 1 µM [6] [%] | inhibition at 1 µM [7] [%] | inhibition at 1 µM [8] [%] | inhibition at 1 µM [9] [%] | inhibition at 1 µM [10] [%] | inhibition at 1 µM [11] [%] | inhibition at 1 µM [12] [%] | other results
1 | CCn1c(-c2ccc(Cl)c(Cl)c2)c(C(=O)O)c(=O)c2cc(F)ccc21 [Compound M, 2-(3,4-dichlorophenyl)-1-ethyl-6-fluoro-4-oxo-quinoline-3-carboxylic acid] | 24 | 31 | 52 | 48 | 78 | 95 | 60 | 83 | 95 | 0 | 2 | 0 | 39 | 33 | 77 | 16 | 19 | 86 | 16 | 17 | inhibition at 0.2 µM [5]: 14%; inhibition at 5 µM [5]: 71%; inhibition at 0.2 µM [6]: 0%; inhibition at 5 µM [6]: 81%; inhibition at 0.2 µM [7]: 41%; inhibition at 5 µM [7]: 90%; inhibition at 0.2 µM [8]: 0%; inhibition at 5 µM [8]: 47%; inhibition at 0.2 µM [9]: 0%; inhibition at 5 µM [9]: 46%; inhibition at 0.2 µM [10]: 59%; inhibition at 5 µM [10]: 96%; inhibition at 0.2 µM [11]: 18%; inhibition at 5 µM [11]: 43%; inhibition at 0.2 µM [12]: 0%; inhibition at 5 µM [12]: 27%
2 | CCn1c(C)c(-c2ccc(F)cc2F)c(=O)c(C(=O)O)c1-c1ccc(Cl)c(Cl)c1 [Compound C, 2-(3,4-dichlorophenyl)-5-(2,4-difluorophenyl)-1-ethyl-6-methyl-4-oxo-pyridine-3-carboxylic acid] | 21 | 33 | 38 | 49 | 78 | 95 | 69 | 90 | 98 | 8 | 13 | 0 | 47 | 63 | 88 | 23 | 31 | 95 | 29 | 55 | inhibition at 0.2 µM [5]: 14%; inhibition at 5 µM [5]: 73%; inhibition at 0.2 µM [6]: 0%; inhibition at 5 µM [6]: 95%; inhibition at 0.2 µM [7]: 54%; inhibition at 5 µM [7]: 95%; inhibition at 0.2 µM [8]: 1%; inhibition at 5 µM [8]: 60%; inhibition at 0.2 µM [9]: 3%; inhibition at 5 µM [9]: 70%; inhibition at 0.2 µM [10]: 79%; inhibition at 5 µM [10]: 97%; inhibition at 0.2 µM [11]: 23%; inhibition at 5 µM [11]: 33%; inhibition at 0.2 µM [12]: 20%; inhibition at 5 µM [12]: 87%
3 | CCOC(=O)c1nn(-c2ccc3c(c2)OC(F)(F)C(F)(F)O3)c2cccc(C(C)=O)c2c1=O [Compound A, ethyl 5-acetyl-4-oxo-1-(2,2,3,3-tetrafluoro-1,4-benzodioxin-6-yl)cinnoline-3-carboxylate] | – | 34 | – | – | 31 | – | – | 29 | – | – | 0 | – | 46 | 0 | 0 | 56 | 10 | 33 | 62 | 42 | –
4 | CCn1c(Cn2ccc(C(F)(F)F)n2)cc(=O)c(C(=O)O)c1-c1ccc(Cl)c(Cl)c1 [Compound L, 2-(3,4-dichlorophenyl)-1-ethyl-4-oxo-6-[[3-(trifluoromethyl)pyrazol-1-yl]methyl]pyridine-3-carboxylic acid] | – | – | – | – | – | – | – | – | – | – | – | – | – | – | – | – | – | – | – | – | inhibition at 0.01 µM [1]: 35%; inhibition at 0.075 µM [1]: 46%; inhibition at 0.5 µM [1]: 66%; inhibition at 0.01 µM [2]: 19%; inhibition at 0.075 µM [2]: 58%; inhibition at 0.5 µM [2]: 92%; inhibition at 0.01 µM [3]: 31%; inhibition at 0.075 µM [3]: 30%; inhibition at 0.5 µM [3]: 54%; inhibition at 0.01 µM [4]: 0%; inhibition at 0.075 µM [4]: 1%; inhibition at 0.5 µM [4]: 2%
